Laboratory results as given in US7022524B1, “Increasing plant growth with luminol” (The Regents of the University of California, Office of …, priority 1998, dated 2006).

What was measured:
alfalfa seedlings = experiment: Net photosynthesis measured as radioactive 14CO2 incorporation in alfalfa seedlings; type: in vivo, Medicago sativa L.
Method: Twenty hours after treating alfalfa roots with purified compound D, 25% to 30% increases in net photosynthesis was effected, as measured by radioactive ^14CO2 incorporation tests. Purified compound D was supplied at approximately 100 pM in solution surrounding roots of three day old alfalfa seedlings. Net photosynthesis was measured as radioactive ^14CO2 incorporation by exposing randomized treatments of all plants simultaneously for about 15 minutes to ^14CO2 in a single chamber with thorough mixing of the chamber atmosphere. Data points were means from two to four replicates, each of which contained approximately 400 seedlings.
The isotopic assay for measuring net photosynthesis with ^14CO2 is described in Sheikholeslam (1980) Botanical Gazette 141:48-52. Briefly, to measure net photosynthesis, intact seedling are placed in a clear plastic box with direct exposure to sunlight or artificial lights. Isotopically labeled ^14CO2 is generated in the plant chamber by injecting an acid solution through a rubber stopper in the wall of the box and into a beaker containing ^14C-bicarbonate. The ^14CO2 released by that chemical reaction is distributed throughout the box with a fan. After 15 minutes of photosynthesis in the presence of ^14CO2, plants are frozen in liquid nitrogen and separated into roots, stems and leaves. The amount of ^14CO2 is measured in the various plant parts with a scintillation counter after chemical digestion of the plant matter.

R. meliloti 1021 = experiment: Production of compounds D and Y by bacterial cultures in supplemented medium; type: cell-based, Rhizobium meliloti; conditions: culture medium supplemented at final concentration of 50 micromolar
[1] = test system: alfalfa (Medicago sativa L.) roots; experiment: Root respiration (CO2 evolution / O2 uptake by gas chromatograph) of excised alfalfa roots after treating intact seedlings; type: in vivo
Method: Rhizobium meliloti 1021 (Rm1021) (Meade (1982) J. Bacteriol. 149:114-122) were grown to the early stationary phase in a defined minimal medium (as described in Vincent (1970) In “A Manual for the Practical Study of Root-Nodule Bacteria, Blackwell Scientific Publications, Oxford, UK). Bacteria were collected by centrifugation and washed three times with sterile water before roots were inoculated. UV irradiance for killing cells in some experiments was supplied as a 25 minute treatment with a transilluminator(model T1202, Sigma). The absence of living cells in UV-killed cultures and sterile, non-inoculated control treatments was verified by plating on tryptone yeast medium.
If respiration is to be measured, it is important that the plants be grown under sterile conditions for the respiration measurements (see, e.g., Guri, et al., U.S. Pat. No. 5,503,652, describing compositions and methods to prevent microbial contamination of plant tissue culture media). Seeds of alfalfa (Medicago sativa L. cv Moapa 69) were surface sterilized for 15 minutes in 70% ethanol, rinsed with water, and allowed to imbibe for four hours with aeration before germinating in a hydroponic system (as in Maxwell (1989) Plant Physiol. 91:842-847) containing nitrogen free nutrient solution (see DeJong (1981) Plant Physiol. 68:309-313). Each 400 mL plastic box contained one gram of seeds and produced about 400 seedlings after being maintained in a sterile manner for about three days with aeration at 25° C. under indirect sunlight supplemented with fluorescent lights. Plants used in these experiments consisted of cotyledons and roots with an occasional primary leaf.
Experiments used 5×10^7 colony-forming units (CFU) of bacteria per mL of plant nutrient solution unless otherwise noted. Bacteria were harvested from their growth medium, washed twice in sterile water, suspended in 1 mL of water and added to the plant nutrient solution of alfalfa seedlings 3 days after germination, when roots were approximately 4-cm long. Sterile water (1 mL) was added to the sterile non-inoculated controls. Plants were harvested to measure root respiration at various times, depending of the experiment. At harvest, roots were excised, blotted briefly on a paper towel, weighed, and enclosed in a 10-mL gas-tight test tube. Each replicate contained 1 gram fresh wt of roots from about 200 plants; every experiment had three or four replicates; and all experiments were repeated at least twice.
All assays were conducted for 30 minutes immediately after excision. Changes in CO2, and in some experiments O2, were measured at 45° C. with a thermistor detector on a Sigma 4 gas chromatograph equipped with a column (3.05 m×3.2 mm) containing Chromosorb 102 for CO2 and Molecular Sieve 5A for O2. Helium was used as the carrier gas at flow rates of 15 cm^3/min for O2 and 35 cm^3/min for CO2. The change in gas composition during the first 30 min after the roots were enclosed in the assay tubes (described above) was used to calculate respiration rates. Data were analyzed with standard statistical methods to determine SE or LSD0.05 values for comparisons of treatment effects by Student's t test or analysis of variance (see, e.g., Steel et al., (1960) Principles and Procedures of Statistics. McGraw-Hill, N.Y.).
Moapa 69′ alfalfa seeds for all experiments were soaked 30 min in 70% ethanol, rinsed with sterile water, treated 5 min in concentrated H2SO4, rinsed with sterile water, soaked 30 min in commercial bleach and then washed with sterile water. For respiration tests approximately 400 seeds (1 gram) were germinated on a 10×10-cm screen above a hydroponic nutrient solution, see Volpin (1998) Plant Physiol. 116:777-783. In some hydroponic experiments the nutrient solution was supplemented to contain ampicillin (125 mg/L) and rifampicin (10 mg/L). Plant growth experiments were done in sterile pots (10×10×10 cm) containing vermiculite. […]

[2] = Solubility and hydrophobicity; type: physicochemical; conditions: for solubility during purification: all solvents; for solubility: purified compounds, water, methanol; for hydrophobicity: removed from aqueous solution in C18 resin
[3] = Stability to light and heat; type: physicochemical; conditions: e.g., 40° C.
alfalfa = experiment: Plant growth (dry weight of shoots and roots) of alfalfa after root or seed treatment; type: in vivo, Medicago sativa L.
Method: In another experiment, treating alfalfa seedling roots with purified compound D at a presumed concentration of about 100 pM every 48 hours for 10 days increased the final shoot dry mass (as determined by weighing) 10% relative to untreated control plants.
Moapa 69′ alfalfa seeds for all experiments were soaked 30 min in 70% ethanol, rinsed with sterile water, treated 5 min in concentrated H2SO4, rinsed with sterile water, soaked 30 min in commercial bleach and then washed with sterile water. For respiration tests approximately 400 seeds (1 gram) were germinated on a 10×10-cm screen above a hydroponic nutrient solution, see Volpin (1998) Plant Physiol. 116:777-783. In some hydroponic experiments the nutrient solution was supplemented to contain ampicillin (125 mg/L) and rifampicin (10 mg/L). Plant growth experiments were done in sterile pots (10×10×10 cm) containing vermiculite. The pots were watered with the hydroponic nutrient solution (Volpin (1998) supra) supplemented to contain 1 mM NH4NO3 and various lumichrome treatments every second day. In all experiments, plants were grown under controlled conditions using a 12/12-hour day/night photoperiod and a 25/20° C. temperature regime with a photon flux density (400-700 nm) of 250 μmol/m^2-s.
Lumichrome effects on plant growth were tested by treating roots or seeds. Surface-sterilized seeds were soaked 2 hours in either 0 or 5 nM lumichrome. Then 50 seeds were planted in vermiculite in each pot. Plants germinating from untreated seeds received nutrient solution containing 0, 5 or 50 nM lumichrome. Plants developing from seeds soaked in 5 nM lumichrome were watered with lumichrome-free nutrient solution. Pots were covered initially with a clear, plastic wrap, which was removed after 6 days. Plants were harvested 12 days after germination, and roots and shoots were separated, dried, and weighed.

[4] = about 100 pM to seedling roots every 48 hours for 10 days

For `CC(=O)c1c(O)cc(O)c(C(C)=O)c1O` [diacetylphloroglucinol, 2,4-diacetyl-1,3,5-benzenetriol], the “increase in net photosynthesis in plants” value (alfalfa seedlings; applied to roots in nanomolar concentrations) was ≤ 50% and the “effect on the production of compound Y” value (R. meliloti 1021) was “no consistent effect”.

In the case of `Cc1cc2nc3[nH]c(=O)[nH]c(=O)c3nc2cc1C` [lumichrome, 7,8,-dimethylalloxazine], the “increase in net photosynthesis over untreated control” value (alfalfa seedlings; approximately 100 pM around roots of three day old seedlings, 20 hours after treating roots) is reported as 25% to 30%, the “time to peak of 14CO2 incorporation” value (alfalfa seedlings; no more than 100 pM) is reported as 5 to 10 h and the “increase in net photosynthesis above untreated controls” value (alfalfa seedlings; no more than 100 pM, 8 hour time point after treating roots) is reported as 45% to 75%. The 14CO2 incorporation (alfalfa seedlings; no more than 100 pM, after approximately 20 hours) was “about 2.0 ^14CO2 cpm×10^5 per gram cotyledon”, the “14CO2 incorporation, peak” value (alfalfa seedlings; no more than 100 pM, peak after about 5 to 10 hours, negative control about 1.5) was 2.5 to 2.75 ^14CO2 cpm×10^5 per gram cotyledon and the “increase in root respiration” value ([1]; 3 to 50 nM treatments of alfalfa roots, several experiments, P≦0.05) was 11% to 30%. The “increase in root respiration” value ([1]; alfalfa roots treated with 3 nM, within 48 hours, P≦0.05) was 21%, the “time for the (slower) increase in root respiration” value ([1]; in vivo) was “greater than 4 hours” and the “increase in root respiration” value ([1]; intact root systems exposed 39 hours, 3 nM lumichrome or S. meliloti cells 10^7 cfu/ml, P≦0.05) was 21%. The solubility during purification [2] was “Solubility problems”, the solubility [2] was “soluble in both water and methanol” and the hydrophobicity [2] was “moderately hydrophobic”. For the same compound, the “stability to light and heat” value [3] was “degraded by light and heat”, the “increase in plant growth” value (alfalfa; 5 nM applied to young alfalfa roots, after 12 days, P≦0.05) was 8% and the “change in root dry weight” value (alfalfa; [4]) was “no increase in root dry weight”. For the same compound, the “increase in final shoot dry mass relative to untreated control plants” value (alfalfa; [4]) was 10%, the “increase in plant growth” value (alfalfa; alfalfa seeds soaked in 5 nM before germination, 12 days, P≦0.01) was 18% and the “root mass relative to control” value (alfalfa; lumichrome-treated plants, 12 days) was “numerically, but not significantly, larger”. For the same compound, the “increase in shoot dry weight relative to control shoots” value (alfalfa; root drench 5 nM, 12 days, P≦0.05) was 7%, the “increase in shoot dry weight relative to control shoots” value (alfalfa; root drench 50 nM, 12 days, P≦0.01) was 12% and the “increase in dry matter on a whole-plant basis” value (alfalfa; roots exposed or seeds immersed before germination, P≦0.05) was 8% to 18%. The “increase in shoot dry weight relative to control shoots” value (alfalfa; seed soaking 5 nM, 12 days, P≦0.01) was 18%.

In the case of `CC(=O)c1c(O)cc(O)cc1O` [monoacetylphloroglucinol], the “effect on the production of compound Y” value (R. meliloti 1021) is reported as “no consistent effect”.

For `Oc1cc(O)cc(O)c1` [phloroglucinol, reference compound], the “effect on the production of compound Y” value (R. meliloti 1021) was “no consistent effect”.

In the case of `Cc1cc2nc3c(=O)[nH]c(=O)nc-3n(C[C@H](O)[C@H](O)[C@H](O)CO)c2cc1C` [riboflavin], the “enhancement of net photosynthesis” value (alfalfa seedlings; very low (e.g., picomolar) concentrations) is reported as ≤ 7%, the “increase in root respiration compared with lumichrome” value ([1]; 200 nM riboflavin, one test) is reported as “approximately the same increase in root respiration as 30 nM lumichrome” and the “increase in root respiration” value ([1]; very low (e.g., picomolar) concentrations, various experiments) is reported as 11% to 31%. The solubility during purification [2] was “only marginally better”, the solubility [2] was “soluble in both water and methanol” and the hydrophobicity [2] was “moderately hydrophobic”. For the same compound, the “stability to light and heat” value [3] was “degraded by light and heat”.
